# Measurements published in patent US11208412B2 (DAEGU-GYEONGBUK MEDICAL INNOVATION FOUNDATION, priority 2017, dated 2021).
# Tests used:
# Test in all cases: Kinase selectivity, DiscoverX scanMAX Kinase assay panel (% control)
# Format in all cases: binding
# [1] = molecular target: T1, kinases of the scanMAX Kinase assay panel (Homo sapiens, UniProt P00533, G719S); settings: EGFR(G719S); 1 uM
# T1 construct: purchased DiscoverX Co. (contract measurement) scanMAX Kinase assay panel
# How it was run: (§1)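 Each enzyme is treated with drug at 1 uM in DMSO, then signal is scaled between a positive control (0%) and DMSO (100%) to give % control. Kinases with % control under 35% are scored as inhibited.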
# [2] = molecular target: T2, kinases of the scanMAX Kinase assay panel (Homo sapiens, UniProt Q9UEW8); settings: kinase STK39; 1 uM in DMSO
# T2 construct: purchased DiscoverX Co. (contract measurement) scanMAX Kinase assay panel
# How it was run: as §1
# [3] = molecular target: T3, kinases of the scanMAX Kinase assay panel (Homo sapiens, UniProt P06213); settings: INSR; 1 uM
# T3 construct: purchased DiscoverX Co. (contract measurement) scanMAX Kinase assay panel
# T3 sequence (P06213 28-1382): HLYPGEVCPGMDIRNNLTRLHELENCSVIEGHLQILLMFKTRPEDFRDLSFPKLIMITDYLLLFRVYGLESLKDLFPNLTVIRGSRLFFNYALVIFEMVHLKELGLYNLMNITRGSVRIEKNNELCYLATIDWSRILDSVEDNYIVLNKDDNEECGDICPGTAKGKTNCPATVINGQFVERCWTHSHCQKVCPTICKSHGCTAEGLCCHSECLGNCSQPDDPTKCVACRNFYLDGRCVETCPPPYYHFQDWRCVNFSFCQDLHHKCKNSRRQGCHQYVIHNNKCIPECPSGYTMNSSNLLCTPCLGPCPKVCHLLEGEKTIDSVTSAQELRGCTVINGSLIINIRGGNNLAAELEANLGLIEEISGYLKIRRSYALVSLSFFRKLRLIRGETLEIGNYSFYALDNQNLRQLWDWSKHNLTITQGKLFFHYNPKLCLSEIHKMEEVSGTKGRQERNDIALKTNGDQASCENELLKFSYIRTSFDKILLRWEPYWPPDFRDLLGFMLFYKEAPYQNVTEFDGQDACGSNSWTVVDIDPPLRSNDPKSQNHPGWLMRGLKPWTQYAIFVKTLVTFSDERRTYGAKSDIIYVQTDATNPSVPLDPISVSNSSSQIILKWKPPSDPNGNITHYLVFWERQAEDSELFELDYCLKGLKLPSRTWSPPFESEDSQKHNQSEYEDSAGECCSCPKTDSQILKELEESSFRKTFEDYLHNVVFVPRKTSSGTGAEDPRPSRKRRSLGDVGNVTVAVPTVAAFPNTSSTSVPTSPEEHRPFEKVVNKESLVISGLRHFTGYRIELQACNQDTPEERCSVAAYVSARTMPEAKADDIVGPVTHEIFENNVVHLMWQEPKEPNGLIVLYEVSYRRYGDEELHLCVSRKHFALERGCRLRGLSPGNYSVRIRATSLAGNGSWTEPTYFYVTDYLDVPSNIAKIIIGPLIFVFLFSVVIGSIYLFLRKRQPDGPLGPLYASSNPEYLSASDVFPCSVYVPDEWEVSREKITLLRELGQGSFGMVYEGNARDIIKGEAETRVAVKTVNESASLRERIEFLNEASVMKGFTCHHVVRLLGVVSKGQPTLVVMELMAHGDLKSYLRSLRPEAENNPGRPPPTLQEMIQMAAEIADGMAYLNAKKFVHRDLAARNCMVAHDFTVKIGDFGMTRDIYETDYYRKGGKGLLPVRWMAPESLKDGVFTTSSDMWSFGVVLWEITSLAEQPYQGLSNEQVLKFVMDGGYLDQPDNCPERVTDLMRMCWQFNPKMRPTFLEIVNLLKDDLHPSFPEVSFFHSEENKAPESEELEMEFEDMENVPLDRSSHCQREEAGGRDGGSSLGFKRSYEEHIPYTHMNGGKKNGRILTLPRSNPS
# How it was run: as §1
# [4] = molecular target: T4, kinases of the scanMAX Kinase assay panel (Homo sapiens, UniProt Q96PN8); settings: kinase TSSK3; 1 uM in DMSO
# T4 construct: purchased DiscoverX Co. (contract measurement) scanMAX Kinase assay panel
# T4 sequence (Q96PN8 1-268): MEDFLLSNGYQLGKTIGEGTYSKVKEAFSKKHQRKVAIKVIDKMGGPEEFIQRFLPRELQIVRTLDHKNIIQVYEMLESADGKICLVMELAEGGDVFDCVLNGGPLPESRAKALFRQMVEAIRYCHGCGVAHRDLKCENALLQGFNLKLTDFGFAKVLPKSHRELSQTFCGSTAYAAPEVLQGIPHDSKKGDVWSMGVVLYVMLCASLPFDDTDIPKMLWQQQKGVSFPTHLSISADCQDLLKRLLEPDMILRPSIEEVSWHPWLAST
# How it was run: as §1
# [5] = molecular target: T5, kinases of the scanMAX Kinase assay panel (Homo sapiens, UniProt P78368); settings: CSNK1G2; 1 uM
# T5 construct: purchased DiscoverX Co. (contract measurement) scanMAX Kinase assay panel
# T5 sequence (P78368 whole entry): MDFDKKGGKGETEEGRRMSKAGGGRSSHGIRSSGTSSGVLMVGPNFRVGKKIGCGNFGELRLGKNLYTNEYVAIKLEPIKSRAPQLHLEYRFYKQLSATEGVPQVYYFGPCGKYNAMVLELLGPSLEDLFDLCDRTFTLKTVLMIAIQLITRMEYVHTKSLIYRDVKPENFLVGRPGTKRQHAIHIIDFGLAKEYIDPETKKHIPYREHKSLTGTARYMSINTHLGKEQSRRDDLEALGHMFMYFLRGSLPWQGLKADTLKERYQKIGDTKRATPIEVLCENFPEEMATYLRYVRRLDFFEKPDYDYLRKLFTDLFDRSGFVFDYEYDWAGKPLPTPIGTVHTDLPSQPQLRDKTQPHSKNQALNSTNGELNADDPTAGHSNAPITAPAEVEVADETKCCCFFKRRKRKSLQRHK
# How it was run: as §1
# [6] = molecular target: T6, kinases of the scanMAX Kinase assay panel (Homo sapiens, UniProt Q52WX2); settings: kinase SBK1; 1 uM in DMSO
# T6 construct: purchased DiscoverX Co. (contract measurement) scanMAX Kinase assay panel
# T6 sequence (Q52WX2 whole entry): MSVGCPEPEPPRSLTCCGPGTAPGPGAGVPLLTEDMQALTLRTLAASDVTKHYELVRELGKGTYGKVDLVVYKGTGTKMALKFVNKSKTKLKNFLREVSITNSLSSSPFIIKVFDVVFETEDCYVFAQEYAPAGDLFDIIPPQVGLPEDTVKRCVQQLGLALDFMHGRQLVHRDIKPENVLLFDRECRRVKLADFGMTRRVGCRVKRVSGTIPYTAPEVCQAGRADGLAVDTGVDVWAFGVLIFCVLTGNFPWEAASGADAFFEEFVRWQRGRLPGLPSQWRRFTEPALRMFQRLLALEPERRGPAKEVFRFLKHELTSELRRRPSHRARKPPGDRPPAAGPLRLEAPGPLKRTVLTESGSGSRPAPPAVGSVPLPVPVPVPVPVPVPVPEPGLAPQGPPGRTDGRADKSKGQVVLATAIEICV
# How it was run: as §1
# [7] = molecular target: T7, kinases of the scanMAX Kinase assay panel (Homo sapiens, UniProt Q9UQ88); settings: CDC2L2; 1 uM
# T7 construct: purchased DiscoverX Co. (contract measurement) scanMAX Kinase assay panel
# T7 sequence (Q9UQ88 1-783): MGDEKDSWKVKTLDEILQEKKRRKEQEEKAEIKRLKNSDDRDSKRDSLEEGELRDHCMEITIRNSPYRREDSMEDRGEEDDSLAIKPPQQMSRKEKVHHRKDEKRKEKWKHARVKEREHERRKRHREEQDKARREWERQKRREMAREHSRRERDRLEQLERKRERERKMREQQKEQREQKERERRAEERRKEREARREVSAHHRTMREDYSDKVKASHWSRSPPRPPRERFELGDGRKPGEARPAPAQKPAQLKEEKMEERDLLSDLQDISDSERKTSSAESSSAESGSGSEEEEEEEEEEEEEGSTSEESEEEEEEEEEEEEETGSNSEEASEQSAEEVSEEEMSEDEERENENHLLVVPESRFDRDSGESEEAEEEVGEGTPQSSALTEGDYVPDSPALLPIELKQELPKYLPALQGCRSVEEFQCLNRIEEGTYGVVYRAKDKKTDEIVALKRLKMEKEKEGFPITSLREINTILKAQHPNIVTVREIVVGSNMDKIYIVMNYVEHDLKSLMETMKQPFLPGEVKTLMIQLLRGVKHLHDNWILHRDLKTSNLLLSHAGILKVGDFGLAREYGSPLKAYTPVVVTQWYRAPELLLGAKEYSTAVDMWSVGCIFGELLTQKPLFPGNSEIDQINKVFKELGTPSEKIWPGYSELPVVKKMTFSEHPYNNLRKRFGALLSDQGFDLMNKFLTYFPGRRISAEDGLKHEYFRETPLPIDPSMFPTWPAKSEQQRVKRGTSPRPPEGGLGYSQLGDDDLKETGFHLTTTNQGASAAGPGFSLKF
# How it was run: as §1
# [8] = molecular target: T8, kinases of the scanMAX Kinase assay panel (Homo sapiens, UniProt Q09013); settings: DMPK; 1 uM
# T8 construct: purchased DiscoverX Co. (contract measurement) scanMAX Kinase assay panel
# T8 sequence (Q09013 1-629): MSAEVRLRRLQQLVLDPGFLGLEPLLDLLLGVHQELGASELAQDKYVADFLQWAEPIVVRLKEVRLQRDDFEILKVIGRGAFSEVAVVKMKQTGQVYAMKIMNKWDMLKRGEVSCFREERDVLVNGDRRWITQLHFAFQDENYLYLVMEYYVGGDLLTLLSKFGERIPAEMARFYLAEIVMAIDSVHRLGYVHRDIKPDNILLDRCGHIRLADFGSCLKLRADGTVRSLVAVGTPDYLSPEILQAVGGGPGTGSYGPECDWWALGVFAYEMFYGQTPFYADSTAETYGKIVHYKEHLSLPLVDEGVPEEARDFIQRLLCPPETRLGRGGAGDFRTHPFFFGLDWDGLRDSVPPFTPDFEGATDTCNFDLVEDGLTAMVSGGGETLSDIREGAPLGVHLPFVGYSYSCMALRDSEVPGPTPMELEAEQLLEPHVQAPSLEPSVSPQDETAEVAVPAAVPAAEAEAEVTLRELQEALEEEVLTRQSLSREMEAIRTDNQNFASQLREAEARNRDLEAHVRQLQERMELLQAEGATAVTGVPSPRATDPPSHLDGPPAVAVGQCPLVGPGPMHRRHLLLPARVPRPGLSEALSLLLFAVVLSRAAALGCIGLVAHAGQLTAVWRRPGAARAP
# How it was run: as §1
# [9] = molecular target: T9, kinases of the scanMAX Kinase assay panel (Homo sapiens, UniProt P22607); settings: FGFR3; 1 uM
# T9 construct: purchased DiscoverX Co. (contract measurement) scanMAX Kinase assay panel
# T9 sequence (P22607 23-806): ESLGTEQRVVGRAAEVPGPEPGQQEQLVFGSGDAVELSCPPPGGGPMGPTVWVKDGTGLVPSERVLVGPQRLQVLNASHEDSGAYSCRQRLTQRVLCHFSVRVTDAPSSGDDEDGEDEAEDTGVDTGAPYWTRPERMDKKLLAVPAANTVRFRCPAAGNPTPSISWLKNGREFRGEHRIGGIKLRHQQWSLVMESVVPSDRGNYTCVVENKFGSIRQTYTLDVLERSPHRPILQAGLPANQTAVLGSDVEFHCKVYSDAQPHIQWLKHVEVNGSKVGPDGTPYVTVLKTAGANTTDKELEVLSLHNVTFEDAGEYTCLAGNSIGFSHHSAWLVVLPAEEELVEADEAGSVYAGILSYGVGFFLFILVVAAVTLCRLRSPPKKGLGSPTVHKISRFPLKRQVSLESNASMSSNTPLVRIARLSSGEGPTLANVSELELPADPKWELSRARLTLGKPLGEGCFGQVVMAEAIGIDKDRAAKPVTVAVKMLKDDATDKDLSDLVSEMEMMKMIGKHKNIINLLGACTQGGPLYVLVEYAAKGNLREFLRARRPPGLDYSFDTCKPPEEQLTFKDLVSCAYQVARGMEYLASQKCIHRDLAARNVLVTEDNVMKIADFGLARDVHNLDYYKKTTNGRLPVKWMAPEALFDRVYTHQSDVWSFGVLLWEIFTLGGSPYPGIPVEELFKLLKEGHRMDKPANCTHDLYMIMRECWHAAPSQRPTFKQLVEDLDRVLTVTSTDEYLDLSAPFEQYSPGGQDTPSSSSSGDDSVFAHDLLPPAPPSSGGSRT
# How it was run: as §1
# [10] = molecular target: T10, kinases of the scanMAX Kinase assay panel (Homo sapiens, UniProt P54764); settings: EPHA4; 1 uM
# T10 construct: purchased DiscoverX Co. (contract measurement) scanMAX Kinase assay panel
# How it was run: as §1
# T1 sequence (P00533 25-1210 G719S): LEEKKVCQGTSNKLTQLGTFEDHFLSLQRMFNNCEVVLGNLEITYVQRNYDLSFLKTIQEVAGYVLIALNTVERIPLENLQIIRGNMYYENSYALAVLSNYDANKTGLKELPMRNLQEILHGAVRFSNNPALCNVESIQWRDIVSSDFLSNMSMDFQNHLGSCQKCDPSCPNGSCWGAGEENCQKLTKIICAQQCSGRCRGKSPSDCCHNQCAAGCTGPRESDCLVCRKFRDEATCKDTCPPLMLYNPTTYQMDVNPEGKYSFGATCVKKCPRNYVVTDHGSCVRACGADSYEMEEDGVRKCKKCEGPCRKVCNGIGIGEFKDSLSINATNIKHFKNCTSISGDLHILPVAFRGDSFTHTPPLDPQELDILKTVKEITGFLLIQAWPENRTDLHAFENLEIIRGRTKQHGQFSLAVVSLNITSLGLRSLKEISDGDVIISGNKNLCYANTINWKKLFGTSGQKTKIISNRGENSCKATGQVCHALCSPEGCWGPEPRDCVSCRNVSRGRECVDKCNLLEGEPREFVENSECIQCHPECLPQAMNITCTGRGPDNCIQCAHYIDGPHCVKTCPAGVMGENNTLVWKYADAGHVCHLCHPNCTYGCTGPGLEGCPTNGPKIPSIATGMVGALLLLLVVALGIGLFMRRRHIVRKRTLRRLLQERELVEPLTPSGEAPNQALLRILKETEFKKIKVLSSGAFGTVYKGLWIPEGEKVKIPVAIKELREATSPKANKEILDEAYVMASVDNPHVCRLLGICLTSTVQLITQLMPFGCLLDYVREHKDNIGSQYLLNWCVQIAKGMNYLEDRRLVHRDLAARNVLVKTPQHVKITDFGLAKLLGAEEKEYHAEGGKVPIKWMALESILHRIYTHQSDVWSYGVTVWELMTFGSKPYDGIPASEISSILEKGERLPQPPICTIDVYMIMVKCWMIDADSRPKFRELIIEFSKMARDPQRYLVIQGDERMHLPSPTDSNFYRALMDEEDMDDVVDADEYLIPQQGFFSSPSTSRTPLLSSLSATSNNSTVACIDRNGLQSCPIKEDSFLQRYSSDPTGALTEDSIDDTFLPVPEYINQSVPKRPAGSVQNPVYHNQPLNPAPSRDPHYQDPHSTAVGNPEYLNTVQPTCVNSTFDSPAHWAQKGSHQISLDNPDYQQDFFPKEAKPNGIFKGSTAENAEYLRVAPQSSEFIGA
SMILES,remaining binding at 1 µM [1] [%],remaining binding at 1 µM [2] [%],remaining binding at 1 µM [3] [%],remaining binding at 1 µM [4] [%],remaining binding at 1 µM [5] [%],remaining binding at 1 µM [6] [%],remaining binding at 1 µM [7] [%],remaining binding at 1 µM [8] [%],remaining binding at 1 µM [9] [%],remaining binding at 1 µM [10] [%]
"CNc1nc(Nc2ccc(C(=O)N3CCOCC3)cc2OC)nc2[nH]cc(C#N)c12 [Example 1, 2-((2-methoxy-4-(morpholine-4-carbonyl)phenyl)amino)-4-(methylamino)-7H-pyrrolo[2,3-d]pyrimidine-5-carbonitrile]",82,14,48,74,58,72,91,100,100,93
"CC1(Nc2nc(Nc3cnn([C@H]4CCN(C5COC5)C[C@@H]4F)c3Cl)nc3[nH]cc(C#N)c23)CC1 [Example 52, 2-((5-chloro-1-((3S,4S)-3-fluoro-1-(oxetane-3-yl)piperidine-4-yl)-1H-pyrazole-4-yl)amino)((1-methylcyclopropyl)amino)-7H-pyrrolo[2,3-d]pyrimidine-5-carbonitrile]",57,0,0.35,72,0.1,21,100,3.4,9.8,75
"CCNc1nc(Nc2ccc(C(=O)N3CCC(N4CCOCC4)CC3)cc2OC)nc2[nH]cc(C(F)(F)F)c12 [Example 104, (4-((4-(ethylamino)-5-(trifluoromethyl)-7H-pyrrolo[2,3-d]pyrimidine-2-yl)amino)-3-methoxyphenyl)(4-morpholinopiperidine-1-yl)methanone]",100,30,7.1,100,100,100,98,100,100,100
